Patent publication US20100086931A1, “METHOD FOR ASSAYING ACTION OF ANTITUMOR AGENT USING DECREASE IN GENE EXPRESSION LEVEL AS INDEX” (Eisai R&D Management Co., Ltd., priority 2007, published 2010)

Test system: peripheral blood mononuclear cells (PBMC)
Test: Microarray analysis (Human Exon 1.0 ST Array) of gene expression in PBMC
Format: cell-based
Conditions: vs untreated group
Source text: Since it is not easy to obtain a cancer tissue clinically, the measurement of the marker in hemocytes readily obtainable in peripheral blood would be more useful. It was then examined whether the marker gene obtained in cancer cells could change in peripheral mononuclear cells in a similar manner as observed in the cancer cells. Specifically peripheral blood was taken from three normal individuals (volunteers) and peripheral mononuclear cells were purified and treated with (8E,12E,14E)-7-((4-Cycloheptylpiperazin-1-yl)carbonyl)oxy-3,6,16,21-tetrahydroxy-6,10,12,16,20-pentamethyl-18,19-epoxytricosa-8,12,14-trien-11-olide for six hours, followed by measurement of change in expression of the gene by a microarray (Human Exon 1.0 ST Array: Affymetrix).
Ficoll-Paque PLUS solution (Amersham, 17-1440-02) was slowly added to the blood taken (with heparin added) from healthy individuals to form a layer underneath the blood (15 ml of Ficoll-Paque PLUS solution was added to 25 ml of blood). After the mixture was centrifuged at 1500 rpm for 30 min, the upper part containing platelets was removed and then a layer containing mononuclear cells was transferred to another tube. The cells were suspended in PBS and centrifuged at 1500 rpm for 5 min, followed by removal of the supernatant. After these steps were repeated twice, the cells were again suspended in RPMI1640 (containing 10% FBS, penicillin, and streptomycin) and the number of the cells was then counted.
PBMC was suspended in RPMI1640 medium (containing 10% FBS, penicillin, and streptomycin) to 5×10^6 cells/ml and 1 ml of the suspension was plated per well of a 24-well plate. Immediately, 111 μl of 10 times-concentrated (8E,12E,14E)-7-((4-Cycloheptylpiperazin-1-yl)carbonyl)oxy-3,6,16,21-tetrahydroxy-6,10,12,16,20-pentamethyl-18,19-epoxytricosa-8,12,14-trien-11-olide was added to the well (six wells per each concentration tested). The cells were then cultured in an incubator with 5% carbon dioxide gas at 37° C. Three hours later, the supernatant was collected and centrifuged at 1500 rpm for five minutes. TRI reagent (SIGMA) (1 ml) was added to each well of the plate from which the supernatant was removed to harvest the cells, which was added to the centrifuged pellet to dissolve. RNA was purified in accordance with the protocol of TRI reagent. RNA was further purified using RNeasy (QIAGEN) and, in accordance with the protocol, DNase I was added to the samples during the procedure. Absorbance at 260 nm was measured to quantify an amount of RNA.
Ribosomal RNA was removed from 1 μg of each RNA by using RiboMinus Human/Mouse Transcriptome Isolation Kit (Invitrogen). Single stranded cDNA synthesis, double stranded cDNA synthesis, cRNA synthesis, second single stranded cDNA synthesis, cDNA fragmentation, and cDNA labeling in order were carried out for total RNA from which ribosomal RNA was removed, using GeneChip Whole Transcript Sense Target Labeling and Control Reagents (Affymetrix) to make a cDNA probe. Subsequently, the cDNA probe was used for hybridization with Human Exon 1.0 ST Array (Affymetrix). The array was washed and stained, and luminescence intensity was measured by a scanner.
The expression level of the gene was quantified by using Expression Console Ver. 1.0 (Affymetrix) with Summarization Method and Normalization Method being set to “Median polish as used in RMA” and “None”, respectively.
Genes showing the change in the expression of the gene in both groups with the 10 nM treatment and the 30 nM treatment is, compared to that in the […], less than 25%; the expression level of the gene in the untreated group is more than 100; both P values of t-test for the 10 nM treated group and the untreated group, and for the 30 nM treated group and the untreated group are less than 5% were picked out. (Table 4). […]

For `CCC(O)C(C)C1OC1CC(C)(O)/C=C/C=C(\C)C1OC(=O)CC(O)CCC(C)(O)C(OC(=O)N2CCN(C3CCCCCC3)CC2)/C=C/C1C` (centres unmarked) [E7107, (8E,12E,14E)-7-((4-Cycloheptylpiperazin-1-yl)carbonyl)oxy-3,6,16,21-tetrahydroxy-6,10,12,16,20-pentamethyl-18,19-epoxytricosa-8,12,14-trien-11-olide], the “Fold Change in expression level of ARFGAP3 (Transcript Cluster 3962587)” value (10 nM) was 0.21, the “Fold Change in expression level of C13orf31 (Transcript Cluster 3487600)” value (10 nM) was 0.21 and the “Fold Change in expression level of CD274 (Transcript Cluster 3161082)” value (10 nM) was 0.19. The “Fold Change in expression level of CTSL1 (Transcript Cluster 3178147)” value (10 nM) was 0.09, the “Fold Change in expression level of DOCK4 (Transcript Cluster 3068097)” value (10 nM) was 0.16 and the “Fold Change in expression level of ENG (Transcript Cluster 3226097)” value (10 nM) was 0.24. The “Fold Change in expression level of GK (Transcript Cluster 3972929)” value (10 nM) was 0.19, the “Fold Change in expression level of KMO (Transcript Cluster 2388085)” value (10 nM) was 0.13 and the “Fold Change in expression level of KYNU (Transcript Cluster 2508520)” value (10 nM) was 0.10. The “Fold Change in expression level of LAIR1 (Transcript Cluster 3870824)” value (10 nM) was 0.21, the “Fold Change in expression level of NRIP3 (Transcript Cluster 3362159)” value (10 nM) was 0.15 and the “Fold Change in expression level of OLR1 (Transcript Cluster 3444043)” value (10 nM) was 0.09. The “Fold Change in expression level of P2RX4 (Transcript Cluster 3434760)” value (10 nM) was 0.22, the “Fold Change in expression level of PIK3R5 (Transcript Cluster 3744680)” value (10 nM) was 0.23 and the “Fold Change in expression level of PLA2G7 (Transcript Cluster 2955827)” value (10 nM) was 0.12. For the same compound, the “Fold Change in expression level of RCN1 (Transcript Cluster 3325503)” value (10 nM) was 0.09, the “Fold Change in expression level of SEMA6B (Transcript Cluster 3846860)” value (10 nM) was 0.23 and the “Fold Change in expression level of SLAMF7 (Transcript Cluster 2363202)” value (10 nM) was 0.15. For the same compound, the “Fold Change in expression level of SLC7A11 (Transcript Cluster 2786322)” value (10 nM) was 0.13, the “Fold Change in expression level of SLC37A2 (Transcript Cluster 3354443)” value (10 nM) was 0.21 and the “Fold Change in expression level of SLC41A2 (Transcript Cluster 3469180)” value (10 nM) was 0.21. For the same compound, the “Fold Change in expression level of SLC43A2 (Transcript Cluster 3740367)” value (10 nM) was 0.22, the “Fold Change in expression level of SLC43A3 (Transcript Cluster 3373845)” value (10 nM) was 0.17 and the “Fold Change in expression level of STEAP4 (Transcript Cluster 3060332)” value (10 nM) was 0.20. The “Fold Change in expression level of TNFAIP6 (Transcript Cluster 2510464)” value (10 nM) was 0.18, the “Fold Change in expression level of TNFSF15 (Transcript Cluster 3222128)” value (10 nM) was 0.10 and the “Fold Change in expression level of TRAF1 (Transcript Cluster 3223738)” value (10 nM) was 0.19. The “Fold Change in expression level of TRAPPC4 (Transcript Cluster 3351775)” value (10 nM) was 0.23, the “Fold Change in expression level of ARFGAP3 (Transcript Cluster 3962587)” value (30 nM) was 0.14 and the “Fold Change in expression level of C13orf31 (Transcript Cluster 3487600)” value (30 nM) was 0.19. The “Fold Change in expression level of CD274 (Transcript Cluster 3161082)” value (30 nM) was 0.18, the “Fold Change in expression level of CTSL1 (Transcript Cluster 3178147)” value (30 nM) was 0.09 and the “Fold Change in expression level of DOCK4 (Transcript Cluster 3068097)” value (30 nM) was 0.14. For the same compound, the “Fold Change in expression level of ENG (Transcript Cluster 3226097)” value (30 nM) was 0.20, the “Fold Change in expression level of GK (Transcript Cluster 3972929)” value (30 nM) was 0.21 and the “Fold Change in expression level of KMO (Transcript Cluster 2388085)” value (30 nM) was 0.13. For the same compound, the “Fold Change in expression level of KYNU (Transcript Cluster 2508520)” value (30 nM) was 0.10, the “Fold Change in expression level of LAIR1 (Transcript Cluster 3870824)” value (30 nM) was 0.14 and the “Fold Change in expression level of NRIP3 (Transcript Cluster 3362159)” value (30 nM) was 0.13. For the same compound, the “Fold Change in expression level of OLR1 (Transcript Cluster 3444043)” value (30 nM) was 0.04, the “Fold Change in expression level of P2RX4 (Transcript Cluster 3434760)” value (30 nM) was 0.22 and the “Fold Change in expression level of PIK3R5 (Transcript Cluster 3744680)” value (30 nM) was 0.21. The “Fold Change in expression level of PLA2G7 (Transcript Cluster 2955827)” value (30 nM) was 0.15, the “Fold Change in expression level of RCN1 (Transcript Cluster 3325503)” value (30 nM) was 0.17 and the “Fold Change in expression level of SEMA6B (Transcript Cluster 3846860)” value (30 nM) was 0.22. For the same compound, the “Fold Change in expression level of SLAMF7 (Transcript Cluster 2363202)” value (30 nM) was 0.14, the “Fold Change in expression level of SLC7A11 (Transcript Cluster 2786322)” value (30 nM) was 0.06 and the “Fold Change in expression level of SLC37A2 (Transcript Cluster 3354443)” value (30 nM) was 0.23. The “Fold Change in expression level of SLC41A2 (Transcript Cluster 3469180)” value (30 nM) was 0.17, the “Fold Change in expression level of SLC43A2 (Transcript Cluster 3740367)” value (30 nM) was 0.18 and the “Fold Change in expression level of SLC43A3 (Transcript Cluster 3373845)” value (30 nM) was 0.14. For the same compound, the “Fold Change in expression level of STEAP4 (Transcript Cluster 3060332)” value (30 nM) was 0.22, the “Fold Change in expression level of TNFAIP6 (Transcript Cluster 2510464)” value (30 nM) was 0.19 and the “Fold Change in expression level of TNFSF15 (Transcript Cluster 3222128)” value (30 nM) was 0.07. The “Fold Change in expression level of TRAF1 (Transcript Cluster 3223738)” value (30 nM) was 0.17 and the “Fold Change in expression level of TRAPPC4 (Transcript Cluster 3351775)” value (30 nM) was 0.21.
